In patent US10392422B2, “Macrocyclic broad spectrum antibiotics” (priority 2014, dated 2019):
Converted amounts (≈) assume the structure as drawn. Where two headings read alike, the source gives them in different places.

Key:
Experiment in all cases: MIC, broth micro-dilution technique (CLSI)
[1] = test system: MRSA COL (NRS100); type: cell-based, Staphylococcus aureus; conditions: for MIC: Staphylococcus aureus, 22 h, read-out: MIC (μg/mL) (COL)
In short: (§1)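 Cation-adjusted MHB + 0.002% Tween-80; 10-point 2-fold series starting 64 μg/ml (modified protocol: 4 μg/mL). Final inoculum OD600 0.0005; 35° C, 22 h. MIC per CLSI M07-A8 broth microdilution.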

[2] = test system: Methicillin Resistant Staphylococcus aureus strain USA 300 (NRS384); type: cell-based; conditions: for MIC: Staphylococcus aureus, 22 h, read-out: MIC (μg/mL) S. aureus
In short: as §1

[3] = test system: Escherichia coli MC4100 harboring the IMP4213; type: cell-based; conditions: for MIC: Escherichia coli, 22 h
In short: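 CLSI broth microdilution in cation-adjusted Mueller Hinton broth with 0.002% v/v Tween-80. Compounds were serially 2-fold diluted over 10 concentrations from 64 μg/ml, or from 4 μg/mL in a modified protocol; inoculum at final OD600 0.0005, incubated 35° C for 22 hours.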

[4] = read-out: MIC (μg/mL) E. coli, Table 1 protocol: serial 2-fold dilutions starting from 64 μg/ml, 35° C., 22 hours
[5] = Table 2 modified protocol: serial 2-fold dilutions starting from 4 μg/mL, 35° C., 22 hours
[6] = read-out: MIC (μg/mL) E. coli, Table 2 modified protocol: serial 2-fold dilutions starting from 4 μg/mL, 35° C., 22 hours
[7] = Table 1 protocol: serial 2-fold dilutions starting from 64 μg/ml, 35° C., 22 hours

| SMILES | MIC [1] [µg/mL] | MIC [2] [µg/mL] | MIC [3, 4] [µg/mL] | further results |
| --- | --- | --- | --- | --- |
| CCCCCCCCCCNCCS(=O)(=O)N[C@@H](CCCCN)C(=O)N(C)[C@@H]1C(=O)N[C@@H](C)C(=O)N[C@H](C(=O)O)Cc2ccc(O)c(c2)-c2cc1ccc2O [Compound 214] | 0.75 (≈ 0.951 µM) | 2.8 (≈ 3.55 µM) | 64 (≈ 81.1 µM) |  |
| CCCCCCCCCCS(=O)(=O)N[C@@H](CCCCN)C(=O)N(C)[C@@H]1C(=O)N[C@@H](C)C(=O)N[C@H](C(=O)N[C@@H](C)C(C)=O)Cc2ccc(OCCN)c(c2)-c2cc1ccc2OCCN.O=CO [Compound 256] |  |  |  | MIC (μg/mL) (COL) [1, 5]: 0.016 µg/mL; MIC (μg/mL) S. aureus [2, 5]: 0.063 µg/mL; MIC (μg/mL) E. coli [3, 5]: >4 µg/mL |
| CCCCc1ccc(-c2ccc(C(=O)N[C@@H](CCCN)C(=O)N(C)[C@@H]3C(=O)N[C@@H](C)C(=O)N[C@H](C(=O)O)Cc4ccc(OCCN)c(c4)-c4cc3ccc4OCCN)cc2)cc1 [Compound 295] | 0.063 (≈ 0.0741 µM) | 0.19 (≈ 0.224 µM) | 0.063 (≈ 0.0741 µM) |  |
| CCCCCCCCCCCCCC(=O)N[C@@H](CCCCN)C(=O)N(C)[C@@H]1C(=O)N[C@@H](C)C(=O)N[C@H](C(=O)O)Cc2ccc(OCCN)c(c2)-c2cc1ccc2OCCN [Compound 293] | 0.063 (≈ 0.0752 µM) | 0.063 (≈ 0.0752 µM) | 0.063 (≈ 0.0752 µM) |  |
| CCCCCCCCCCNCCC(=O)N[C@@H](CCCCN)C(=O)N(C)[C@@H]1C(=O)N[C@@H](C)C(=O)N[C@H](C(=O)N[C@@H](C)C(C)=O)Cc2ccc(O)c(c2)-c2cc1ccc2O [Compound 114] | 1 (≈ 1.22 µM) | > 64 | 32 (≈ 38.9 µM) |  |
| CC(=O)OCC(=O)[C@H](C)NC(=O)[C@@H]1Cc2ccc(O)c(c2)-c2cc(ccc2OCCN)[C@H](N(C)C(=O)[C@H](CCCCN)NC(=O)c2ccc(-c3ccc(Cl)cc3)cc2)C(=O)N[C@@H](C)C(=O)N1 [Compound 117] | 0.22 (≈ 0.237 µM) | 0.71 (≈ 0.766 µM) | 1.6 (≈ 1.73 µM) |  |
| C[C@H](NC(=O)[C@@H]1Cc2ccc(O)c(c2)-c2cc(ccc2O)[C@H](N(C)C(=O)[C@H](CCCCN)NC(=O)c2ccc(-c3ccc(Cl)cc3)cc2)C(=O)N[C@@H](C)C(=O)N1)C(=O)CN=[N+]=[N-] [Compound 255] | 3 (≈ 3.46 µM) | 12 (≈ 13.9 µM) | > 64 |  |
| CCCCCCCCCC(=O)NCC(=O)N(C)[C@@H]1C(=O)N[C@@H](C)C(=O)N[C@H](C(=O)N[C@@H](C)C(C)=O)Cc2ccc(OCCN)c(c2)-c2cc1ccc2OCCN.O=CO [Compound 267] |  |  |  | MIC (μg/mL) (COL) [1, 5]: 0.5 µg/mL; MIC (μg/mL) S. aureus [2, 5]: 1.5 µg/mL; MIC (μg/mL) E. coli [3, 5]: >4 µg/mL |
| CCCCCCCCc1ccc(C(=O)N[C@@H](CCCN)C(=O)N(C)[C@@H]2C(=O)N[C@@H](C)C(=O)N[C@H](C(=O)N[C@@H](C)B3O[C@@H]4C[C@@H]5C[C@@H](C5(C)C)[C@]4(C)O3)Cc3ccc(OCCN)c(c3)-c3cc2ccc3OCCN)c(C)c1 [Compound 321] | 0.063 (≈ 0.06 µM) | 0.094 (≈ 0.0896 µM) | 0.063 (≈ 0.06 µM) |  |
| C[C@@H]1NC(=O)[C@@H](N(C)C(=O)[C@H](CCCCN)NC(=O)c2ccc(-c3ccc(-c4ccccc4)cc3)cc2)c2ccc(OCCN)c(c2)-c2cc(ccc2OCCN)C[C@@H](C(=O)O)NC1=O [Compound 287] | 0.094 (≈ 0.106 µM) | 0.25 (≈ 0.283 µM) |  | MIC [3, 6]: 0.047 µg/mL (≈ 0.0532 µM) |
| C[C@@H]1NC(=O)[C@@H](N(C)C(=O)[C@H](CCCCN)NC(=O)c2ccc(-c3cc(Cl)cc(Cl)c3)cc2)c2ccc(OCCN)c(c2)-c2cc(ccc2OCCN)C[C@@H](C(=O)O)NC1=O [Compound 280] | 0.38 (≈ 0.433 µM) | 0.75 (≈ 0.855 µM) |  | MIC [3, 6]: 0.25 µg/mL (≈ 0.285 µM) |
| C[C@@H]1NC(=O)[C@@H](N(C)C(=O)[C@H](CCCCN)NC(=O)c2ccc(-c3ccc(Cl)cc3)cc2)c2ccc(O)c(c2)-c2cc(ccc2O)C[C@@H](C(=O)N[C@@H](C)C(=O)C(=O)NCc2cc[nH]n2)NC1=O [Compound 141] |  |  | 32 (≈ 34.2 µM) | MIC [1, 7]: 4 µg/mL (≈ 4.28 µM); MIC [2, 7]: 8 µg/mL (≈ 8.56 µM) |
| CCCCCCCCCCCCCC(=O)NC(CCCCN)C(=O)N(C)C1C(=O)NC(C)C(=O)NC(C(=O)NC(C)B2OC3CC4CC(C4(C)C)C3(C)O2)Cc2ccc(OCCN)c(c2)-c2cc1ccc2OCCN (stereo not drawn) [Compound 314] |  |  |  | MIC (μg/mL) (COL) [1, 7]: 0.012 µg/mL (≈ 0.0115 µM); MIC (μg/mL) S. aureus [2, 7]: 0.063 µg/mL (≈ 0.0604 µM); MIC (μg/mL) E. coli [3, 7]: 0.094 µg/mL (≈ 0.0901 µM) |
| CC(=O)[C@H](C)NC(=O)[C@@H]1Cc2ccc(O)c(c2)-c2cc(ccc2OCCN)[C@H](N(C)C(=O)[C@H](CCCCN)NC(=O)c2ccc(-c3ccc(Cl)cc3)cc2)C(=O)N[C@@H](C)C(=O)N1 [Compound 119] | 0.5 (≈ 0.576 µM) | 1 (≈ 1.15 µM) | 5.3 (≈ 6.1 µM) |  |
| CCCCCCCCc1ccc(C(=O)N[C@@H](CCCN)C(=O)N(C)[C@@H]2C(=O)N[C@@H](C)C(=O)N[C@H](C(=O)O)Cc3ccc(OCCN)c(c3)-c3cc2ccc3OCCN)c(C)c1 [Compound 296] | 0.063 (≈ 0.0746 µM) | 0.063 (≈ 0.0746 µM) | 0.063 (≈ 0.0746 µM) |  |
| CNC(=O)C(=O)CNC(=O)[C@@H]1Cc2ccc(O)c(c2)-c2cc(ccc2O)[C@H](N(C)C(=O)[C@H](CCCCN)NC(=O)c2ccc(-c3ccc(Cl)cc3)cc2)C(=O)N[C@@H](C)C(=O)N1 [Compound 238] |  |  | 64 (≈ 74.9 µM) | MIC [1, 7]: 8 µg/mL (≈ 9.36 µM); MIC [2, 7]: 32 µg/mL (≈ 37.5 µM) |
| C[C@@H]1NC(=O)[C@@H](N(C)C(=O)[C@H](CCCCN)NC(=O)c2ccc(/C=C/c3ccccc3)cc2)c2ccc(OCCN)c(c2)-c2cc(ccc2OCCN)C[C@@H](C(=O)O)NC1=O [Compound 281] | 1 (≈ 1.2 µM) | 3 (≈ 3.6 µM) |  | MIC [3, 6]: 0.25 µg/mL (≈ 0.3 µM) |
| CCCCc1ccc(-c2ccc(C(=O)N[C@@H](CCCN)C(=O)N(C)[C@@H]3C(=O)N[C@@H](C)C(=O)N[C@H](C(=O)NC/C=C/S(C)(=O)=O)Cc4ccc(OCCN)c(c4)-c4cc3ccc4OCCN)cc2)cc1 [Compound 327] |  |  |  | MIC [1, 5]: 0.13 µg/mL (≈ 0.134 µM); MIC [2, 5]: 0.5 µg/mL (≈ 0.517 µM); MIC [3, 6]: 0.5 µg/mL (≈ 0.517 µM) |
| CC(=O)[C@H](C)NC(=O)[C@@H]1Cc2ccc(O)c(c2)-c2cc(ccc2O)[C@H](N(C)C(=O)[C@H](CCCCN)NC(=O)c2ccc(-c3ccc(Cl)cc3)cc2)C(=O)N[C@@H](C)C(=O)N1 [Compound 109] | 1 (≈ 1.21 µM) | 4 (≈ 4.85 µM) | 64 (≈ 77.5 µM) |  |
| CCCCCCCCc1ccc(C(=O)N[C@@H](CCN)C(=O)N(C)[C@@H]2C(=O)N[C@@H](C)C(=O)N[C@H](C(=O)O)Cc3ccc(OCCN)c(c3)-c3cc2ccc3OCCN)c(C)c1 [Compound 302] | 0.039 (≈ 0.047 µM) | 0.11 (≈ 0.133 µM) |  | MIC [3, 6]: 0.0088 µg/mL (≈ 0.0106 µM) |
| C[C@H](NC(=O)[C@@H]1Cc2ccc(O)c(c2)-c2cc(ccc2O)[C@H](N(C)C(=O)[C@H](CCCCN)NC(=O)c2ccc(-c3ccc(Cl)cc3)cc2)C(=O)N[C@@H](C)C(=O)N1)C(=O)N[C@H]1CCNC1=O [Compound 135] |  |  | 64 (≈ 70.4 µM) | MIC [1, 7]: 32 µg/mL (≈ 35.2 µM); MIC [2, 7]: > 64 µg/mL |
| CCCCCCCCc1ccc(C(=O)N[C@@H](CCCN)C(=O)N(C)[C@@H]2C(=O)N[C@@H](C)C(=O)N[C@H](C(=O)N[C@@H](C)B3O[C@@H]4C[C@@H]5C[C@@H](C5(C)C)[C@]4(C)O3)Cc3ccc(OC)c(c3)-c3cc2ccc3OC)cc1 [Compound 319] | 1 (≈ 1.02 µM) | 2 (≈ 2.05 µM) | 0.75 (≈ 0.768 µM) |  |
| CC(=O)[C@H](C)NC(=O)[C@@H]1Cc2ccc(OCC(=O)O)c(c2)-c2cc(ccc2O)[C@H](N(C)C(=O)[C@H](CCCCN)NC(=O)c2ccc(-c3ccc(Cl)cc3)cc2)C(=O)N[C@@H](C)C(=O)N1 [Compound 207] |  |  | 32 (≈ 36.2 µM) | MIC [1, 7]: 6 µg/mL (≈ 6.79 µM); MIC [2, 7]: 32 µg/mL (≈ 36.2 µM) |
| C[C@H](NC(=O)CCC(=O)[C@H](C)NC(=O)[C@@H]1Cc2ccc(O)c(c2)-c2cc(ccc2O)[C@H](N(C)C(=O)[C@H](CCCCN)NC(=O)c2ccc(-c3ccc(Cl)cc3)cc2)C(=O)N[C@@H](C)C(=O)N1)C(=O)O [Compound 147] | > 64 | > 64 | > 64 |  |
| C[C@H](NC(=O)[C@@H]1Cc2ccc(O)c(c2)-c2cc(ccc2O)[C@H](N(C)C(=O)[C@H](CCCCN)NC(=O)c2ccc(-c3ccc(Cl)cc3)cc2)C(=O)N[C@@H](C)C(=O)N1)C(=O)CP(=O)(O)O [Compound 166] | 8 (≈ 8.84 µM) | 32 (≈ 35.3 µM) |  | MIC ([3]; read-out: MIC (μg/mL) E. coli): > 64 µg/mL |
| Cc1nc(C(=O)[C@H](C)NC(=O)[C@@H]2Cc3ccc(O)c(c3)-c3cc(ccc3O)[C@H](N(C)C(=O)[C@H](CCCCN)NC(=O)c3ccc(-c4ccc(Cl)cc4)cc3)C(=O)N[C@@H](C)C(=O)N2)no1 [Compound 237] |  |  | 8 (≈ 8.95 µM) | MIC [1, 7]: 4 µg/mL (≈ 4.48 µM); MIC [2, 7]: 12 µg/mL (≈ 13.4 µM) |
| CCCCCCCCCCCCS(=O)(=O)N[C@@H](CCCCN)C(=O)N(C)[C@@H]1C(=O)N[C@@H](C)C(=O)N[C@H](C(=O)N[C@@H](C)C(C)=O)Cc2ccc(O)c(c2)-c2cc1ccc2O [Compound 221] |  |  | 45 (≈ 53.4 µM) | MIC [1, 7]: 0.13 µg/mL (≈ 0.154 µM); MIC [2, 7]: 0.5 µg/mL (≈ 0.593 µM) |
| C[C@@H]1NC(=O)[C@@H](N(C)C(=O)[C@H](CCCCN)NC(=O)c2ccc(-c3ccc(Cl)cc3)cc2)c2ccc(OCCN)c(c2)-c2cc(ccc2OCCN)C[C@@H](C(=O)N[C@@H](C)C(=O)c2nc(Cl)n[nH]2)NC1=O [Compound 275] |  |  |  | MIC [1, 5]: 0.13 µg/mL (≈ 0.13 µM); MIC [2, 5]: 1 µg/mL (≈ 1 µM); MIC [3, 6]: 2 µg/mL (≈ 2 µM) |
